Our source for the Activity and IC50 values is ChEMBL document CHEMBL1671682, “Inhibition of human immunodeficiency virus type 1 by triciribine involves the accessory protein nef” (Antimicrob Agents Chemother, 2010).

Bounds are passed on as bounds.

The subject of series [1] is PBMC. Kind of series: Cytotoxicity against human PBMC assessed as cell viability at 1 uM by MTS assay. The format is cell-based.
In series [2] the test system is Human immunodeficiency virus 1. The series can be described thus: Antiviral activity against Human immunodeficiency virus 1 A12 harboring Tyr127His, Asp174Asn and Arg178Lys mutations in nef protein infecting in CEM-SS cells assessed as inhibition of viral Reverse transcriptase by [3H]TTP incorporation assay.
Series [3] has as its system Simian immunodeficiency virus. The series can be described thus: Antiviral activity against simian immunodeficiency virus Mac251 infected in phytohemagglutininin and interleukin-2-stimulated PBMC assessed as inhibition of viral Reverse transcriptase by [3H]TTP incorporation assay. It counts as functional, organism-based.
The next series deals with CEM-SS. The series can be described thus: Cytotoxicity against human CEM-SS cells by MTS assay. The format is functional, cell-based.
Series [4] has as its system Human immunodeficiency virus 2. Kind of series: Antiviral activity against Human immunodeficiency virus 2 CDC 310319 infected in phytohemagglutininin and interleukin-2-stimulated PBMC assessed as inhibition of viral Reverse transcriptase by [3H]TTP incorporation assay. The format is functional, organism-based.
Series [5] relates to Human immunodeficiency virus 1. Kind of series: Antiviral activity against Human immunodeficiency virus 1 D1 harboring Tyr127His mutation in nef protein infecting in CEM-SS cells assessed as inhibition of viral Reverse transcriptase by [3H]TTP incorporation assay.
For series [6], the system named is Simian immunodeficiency virus. Kind of series: Antiviral activity against simian immunodeficiency virus 69R infected in phytohemagglutininin and interleukin-2-stimulated PBMC assessed as inhibition of viral Reverse transcriptase by [3H]TTP incorporation assay. The format is functional, organism-based.
For series [7], the system named is PBMC. Kind of series: Cytotoxicity against human PBMC assessed as cell viability at 10 uM by MTS assay. It counts as cell-based.
Another series concerns H9. The series can be described thus: Cytotoxicity against human H9 cells by MTS assay. The format is functional, cell-based.
Series [8] has as its system Human immunodeficiency virus 1. Kind of series: Antiviral activity against Human immunodeficiency virus 1 A7 harboring Tyr127His mutation in nef protein infecting in CEM-SS cells assessed as inhibition of viral Reverse transcriptase by [3H]TTP incorporation assay.
In series [9] the test system is Human immunodeficiency virus 1. Kind of series: Antiviral activity against Human immunodeficiency virus 1 H10 harboring Tyr127His, Gly140Glu, Glu149Lys, Asp174Asn and Arg178Lys mutations in nef protein infecting in CEM-SS cells assessed as inhibition of viral Reverse transcriptase by [3H]TTP incorporation assay.
Series [10] concerns Human immunodeficiency virus 2. The series can be described thus: Antiviral activity against Human immunodeficiency virus 2 CDC 310342 infected in phytohemagglutininin and interleukin-2-stimulated PBMC assessed as inhibition of viral Reverse transcriptase by [3H]TTP incorporation assay. It counts as functional, organism-based.
A short description of series [11]: Cytotoxicity against human AA5 cells by MTS assay. The format is cell-based.

As to `Cc1cn([C@H]2C[C@H](N=[N+]=[N-])[C@@H](CO)O2)c(=O)[nH]c1=O` [ZIDOVUDINE], the Activity entry in the series on PBMC [1] and with PBMC [7] was “Non-toxic” each time. Also, the IC50 in [2] is 80 nM; in series [3], 10 nM; in the series with CEM-SS, over 100 nM; in [4], 0.2 nM; in series [5], 15 nM; in series [6], 0.5 nM. In addition, the IC50 was over 100 nM in the series on H9; 28 nM in [8]; 40 nM in [9]; 1 nM in series [10]; over 100 nM in series [11].
